The subject of the data set is Phospholipidosis. The data set is described as follows: Literature-mined public compounds from Kruhlak et al phospholipidosis modelling dataset.

On to `CN1CCN(C2=Nc3ccccc3Oc3ccc(Cl)cc32)CC1` [LOXAPINE], for which the Phospholipidosis entry is recorded as “Negative: based on the absence of positive reported data from WMDD”.
`CCN(CC)CCNc1ccc(C)c2sc3ccccc3c(=O)c12` [LUCANTHONE]: the Phospholipidosis result is “Negative: based on the absence of positive reported data from WMDD”.
In the case of `CCN(CC)C(=O)[C@@H]1C=C2c3cccc4[nH]cc(c34)C[C@H]2N(C)C1` [LYSERGIDE], the Phospholipidosis result is “Positive: weak inducer based on presence of foamy macrophages and cytoplasmic vacuolations”.
The same measure for `NCCCC[C@H](N)C(=O)O` [LYSINE]: “Negative: based on the absence of positive reported data from WMDD”; for `OC[C@H]1O[C@H](O[C@H]2[C@H](O)[C@@H](O)[C@H](O)O[C@@H]2CO)[C@H](O)[C@@H](O)[C@@H]1O` [MALTOSE]: “Negative: based on the absence of positive reported data from WMDD”.
For `CNCCCC12CCC(c3ccccc31)c1ccccc12` [MAPROTILINE] the value was “Positive: strong inducer confirmed by electron microscopy”; for `CC12CC3CC(C)(C1)CC(N)(C3)C2` [MEMANTINE], “Positive: weak inducer based on presence of foamy macrophages and cytoplasmic vacuolations”; for `CC1=CC(=O)c2ccccc2C1=O` [MENADIONE], “Negative: confirmed by electron microscopy”.
As to `C[N+]1(C)CCCC(OC(=O)C(O)(c2ccccc2)c2ccccc2)C1.[Br-]` (centres undefined) [MEPENZOLATE BROMIDE], the Phospholipidosis entry is recorded as “Negative: based on the absence of positive reported data from WMDD”.
The same measure for `C[C@H]1C[C@H]2[C@@H]3CCC4=CC(=O)C=C[C@]4(C)[C@H]3C(=O)C[C@]2(C)[C@@]1(O)C(=O)CO` [MEPREDNISONE]: “Negative: based on the absence of positive reported data from WMDD”; for `Sc1ncnc2nc[nH]c12` [MERCAPTOPURINE ANHYDROUS]: “Negative: based on the absence of positive reported data from WMDD”.
For the compound `CN1CCCCC1CCN1c2ccccc2Sc2ccc([S+](C)[O-])cc21` (centres undefined) [MESORIDAZINE], the Phospholipidosis entry is “Positive: weak inducer based on presence of foamy macrophages and cytoplasmic vacuolations”.
For `Cc1ccc(S(=O)(=O)NC(=O)NC2CCCCC2)cc1N` [METAHEXAMIDE] the value was “Negative: based on the absence of positive reported data from WMDD”.
The same measure for `Cc1cc(C)cc(OCC2CNC(=O)O2)c1` (centres undefined) [METAXALONE]: “Negative: based on the absence of positive reported data from WMDD”; for `CN(C)C(=N)N=C(N)N` [METFORMIN]: “Negative: confirmed by electron microscopy”.
As to `CC(=O)OC(C)C[N+](C)(C)C` (centres undefined) [METHACHOLINE], the Phospholipidosis result is reported as “Negative: based on the absence of positive reported data from WMDD”.
For `C[C@]12C=CC(=O)C=C1CC[C@@H]1[C@@H]2CC[C@@]2(C)[C@H]1CC[C@]2(C)O` [METHANDROSTENOLONE] the value was “Negative: based on the absence of positive reported data from WMDD”; for `COc1ccccc1OCC(O)COC(N)=O` (centres undefined) [METHOCARBAMOL], “Negative: based on the absence of positive reported data from WMDD”; for `C[C@](N)(Cc1ccc(O)c(O)c1)C(=O)O` [METHYLDOPA], “Negative: confirmed by electron microscopy”.
Regarding `COC(=O)c1ccc(O)cc1` [METHYLPARABEN], the Phospholipidosis result is “Negative: based on the absence of positive reported data from WMDD”.
Regarding `CCC1(CC)C(=O)NCC(C)C1=O` (centres undefined) [METHYPRYLON], the Phospholipidosis result is “Negative: based on the absence of positive reported data from WMDD”.
For `CO[C@H]1[C@@H](O)C[C@H](O[C@H]2[C@@H](O)C[C@H](O[C@H]3[C@@H](O)C[C@H](O[C@H]4CC[C@@]5(C)[C@H](CC[C@@H]6[C@@H]5C[C@@H](O)[C@]5(C)[C@@H](C7=CC(=O)OC7)CC[C@]65O)C4)O[C@@H]3C)O[C@@H]2C)O[C@@H]1C` [METILDIGOXIN], the Phospholipidosis entry is on record as “Negative: based on the absence of positive reported data from WMDD”.
As for `COc1ccc2cc1Oc1cc3c(cc1OC)CC[N+](C)(C)[C@H]3Cc1ccc(cc1)Oc1c(OC)c(OC)cc3c1[C@@H](C2)[N+](C)(C)CC3` [METOCURINE], the Phospholipidosis entry is recorded as “Negative: based on the absence of positive reported data from WMDD”.
On to `COCCc1ccc(OCC(O)CNC(C)C)cc1` (centres undefined) [METOPROLOL], for which the Phospholipidosis result is given as “Negative: based on the absence of positive reported data from WMDD”.
For `CC(=O)Nc1c(I)c(C(=O)O)c(I)c(N(C)C(C)=O)c1I` [METRIZOIC ACID], the Phospholipidosis entry is “Negative: based on the absence of positive reported data from WMDD”.
The same measure for `Cc1ncc([N+](=O)[O-])n1CCO` [METRONIDAZOLE]: “Negative: based on the absence of positive reported data from WMDD”; for `CC(C)(C(=O)c1cccnc1)c1cccnc1` [METYRAPONE]: “Negative: based on the absence of positive reported data from WMDD”; for `CC1(C)S[C@@H]2[C@H](NC(=O)[C@H](NC(=O)N3CCN(S(C)(=O)=O)C3=O)c3ccccc3)C(=O)N2[C@H]1C(=O)O` [MEZLOCILLIN]: “Negative: based on the absence of positive reported data from WMDD”.
For the compound `CN1CCN2c3ccccc3Cc3ccccc3C2C1` (centres undefined) [MIANSERIN], the Phospholipidosis entry was “Positive: weak inducer based on presence of foamy macrophages and cytoplasmic vacuolations”.
For `Cc1ncc2n1-c1ccc(Cl)cc1C(c1ccccc1F)=NC2` [MIDAZOLAM] the value was “Negative: based on the absence of positive reported data from WMDD”.
For `CCCCC(C)(O)C/C=C/[C@H]1[C@H](O)CC(=O)[C@@H]1CCCCCCC(=O)OC` (some centres undefined) [MISOPROSTOL] the value was “Negative: based on the absence of positive reported data from WMDD”.
The same measure for `O[C@@H]([C@H](O)[C@H](O)CBr)[C@H](O)CBr` [MITOBRONITOL]: “Negative: based on the absence of positive reported data from WMDD”; for `NC(=O)C[S+]([O-])C(c1ccccc1)c1ccccc1` (centres undefined) [MODAFINIL]: “Negative: based on the absence of positive reported data from WMDD”; for `CCOC(=O)[C@H](CCc1ccccc1)N[C@@H](C)C(=O)N1Cc2cc(OC)c(OC)cc2C[C@H]1C(=O)O` [MOEXIPRIL]: “Negative: based on the absence of positive reported data from WMDD”.
`CCc1c(C)[nH]c2c1C(=O)C(CN1CCOCC1)CC2` (centres undefined) [MOLINDONE]: the Phospholipidosis entry is listed as “Negative: based on the absence of positive reported data from WMDD”.
For `CCOC(=O)Nc1ccc2c(c1)N(C(=O)CCN1CCOCC1)c1ccccc1S2` [MORICIZINE] the value was “Negative: based on the absence of positive reported data from WMDD”; for `CC(=O)Oc1cc(C(C)C)c(OCCN(C)C)cc1C` [MOXISYLYTE], “Negative: based on the absence of positive reported data from WMDD”; for `CCn1cc(C(=O)O)c(=O)c2ccc(C)nc21` [NALIDIXIC ACID], “Negative: based on the absence of positive reported data from WMDD”.
As for `C[C@]12CC[C@H]3[C@@H](CCC4=CC(=O)CC[C@@H]43)[C@@H]1CC[C@@H]2O` [NANDROLONE], the Phospholipidosis entry is given as “Negative: based on the absence of positive reported data from WMDD”.
With `C[C@@H]1C/C=C/C=C/C=C/C=C/[C@H](O[C@@H]2O[C@H](C)[C@@H](O)[C@H](N)[C@@H]2O)C[C@@H]2O[C@](O)(C[C@@H](O)C[C@H]3O[C@@H]3/C=C/C(=O)O1)C[C@H](O)[C@H]2C(=O)O` [NATAMYCIN], the Phospholipidosis result is given as “Negative: based on the absence of positive reported data from WMDD”.
Consider `CCc1nn(CCCN2CCN(c3cccc(Cl)c3)CC2)c(=O)n1CCOc1ccccc1` [NEFAZODONE], for which the Phospholipidosis result was “Negative: based on the absence of positive reported data from WMDD”.
In the case of `CCN[C@@H]1C[C@H](N)[C@@H](O[C@H]2OC(CN)=CC[C@H]2N)[C@H](O)[C@H]1O[C@H]1OC[C@](C)(O)[C@H](NC)[C@H]1O` [NETILMICIN], the Phospholipidosis entry is “Positive: strong inducer confirmed by electron microscopy”.
For `O=C(O)c1cccnc1` [NIACIN], the Phospholipidosis result is “Negative: based on the absence of positive reported data from WMDD”.
Consider `O=C(OC[C@H]1O[C@](O)(COC(=O)c2cccnc2)[C@@H](OC(=O)c2cccnc2)[C@@H]1OC(=O)c1cccnc1)c1cccnc1` [NICOFURANOSE], for which the Phospholipidosis entry is recorded as “Negative: based on the absence of positive reported data from WMDD”.
The same measure for `CN1C(=O)CN=C(c2ccccc2)c2cc([N+](=O)[O-])ccc21` [NIMETAZEPAM]: “Negative: based on the absence of positive reported data from WMDD”.
As for `COCCOC(=O)C1=C(C)NC(C)=C(C(=O)OC(C)C)C1c1cccc([N+](=O)[O-])c1` (centres undefined) [NIMODIPINE], the Phospholipidosis result is reported as “Negative: based on the absence of positive reported data from WMDD”.
Consider `O=C1CN=C(c2ccccc2)c2cc([N+](=O)[O-])ccc2N1` [NITRAZEPAM], for which the Phospholipidosis entry was “Negative: based on the absence of positive reported data from WMDD”.
For `CCOC(=O)C1=C(C)NC(C)=C(C(=O)OC)C1c1cccc([N+](=O)[O-])c1` (centres undefined) [NITRENDIPINE] the value was “Negative: based on the absence of positive reported data from WMDD”; for `O=C1CN(/N=C/c2ccc([N+](=O)[O-])o2)C(=O)N1` [NITROFURANTOIN], “Negative: based on the absence of positive reported data from WMDD”; for `CN1Cc2c(N)cccc2C(c2ccccc2)C1` (centres undefined) [NOMIFENSINE], “Negative: based on the absence of positive reported data from WMDD”.
For `Clc1ccc(C(c2ccccc2)N2CCNCC2)cc1` (centres undefined) [NORCHLORCYCLIZINE] the value was “Positive: strong inducer confirmed by electron microscopy”; for `CC[C@]1(O)CC[C@H]2[C@@H]3CCC4=CC(=O)CC[C@@H]4[C@H]3CC[C@@]21C` [NORETHANDROLONE], “Negative: based on the absence of positive reported data from WMDD”; for `C#C[C@]1(OC(C)=O)CC[C@H]2[C@@H]3CCC4=CC(=O)CC[C@@H]4[C@H]3CC[C@@]21C` [NORETHINDRONE ACETATE], “Negative: based on the absence of positive reported data from WMDD”.
`CNCCC=C1c2ccccc2CCc2ccccc21` [NORTRIPTYLINE]: the Phospholipidosis entry is listed as “Positive: strong inducer confirmed by electron microscopy”.

The values above are taken from ChEMBL document CHEMBL1697821, “Development of a phospholipidosis database and predictive quantitative structure-activity relationship (QSAR) models” (Toxicol Mech Methods, 2008).
